Consider four compounds from PubChem BioAssay AID1963837 (Molecular Pharmacology Branch, DTP, NCI, 2024).
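Further: spheroids exposed to drugs for seven days before readout.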

The first assay has as its system 843126-344-R-J1-PDC complex spheroid viability. The assay can be described thus: Anticancer human tumor 843126-344-R-J1-PDC patient-derived melanoma cell line growth inhibition [POLQ]. The conditions noted are these: second compound 3.16 µM; first compound 0.1 µM; active compounds read low. The gist of the method: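 Patient-derived tumour cells were co-cultured with HUVEC and mesenchymal stem cells as multicellular spheroids at 37 °C. They were treated with POLQ inhibitors (novobiocin, ART-558, RP6685) alone or combined with other agents. Top concentrations were at or near clinical Cmax (otherwise 10 microM; SN-38 at 1 microM), decreasing in half-log steps.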
For orientation: viability, T/C means the result in the treated group divided by that in the control group, in per cent. With `COc1cc(C2c3cc4c(cc3C(OC3OC5COC(C)OC5C(O)C3O)C3COC(=O)C23)OCO4)cc(OC)c1O` (stereo unspecified) + Cc1cccc(N(C)C(=O)C2C(O)CCN2c2nc(C)cc(C(F)(F)F)c2C#N)c1, the viability, T/C was 79.7%.
The same measure, in the same setting: the result for `COc1cccc2c1C(=O)c1c(O)c3c(c(O)c1C2=O)CC(O)(C(=O)CO)CC3OC1CC(N)C(O)C(C)O1` (stereo unspecified) + Cc1cccc(N(C)C(=O)C2C(O)CCN2c2nc(C)cc(C(F)(F)F)c2C#N)c1 reads 64%.

The assay is the same for the next values; noted with them: second compound 3.16 µM; first compound 0.316 µM; active compounds read low.
Consider `CC1COCCN1c1cc(C2(O)CC3CCC(C2)O3)c2cnn(-c3ccn[nH]3)c2n1` (stereo unspecified) + COC1C(OC(N)=O)C(O)C(Oc2ccc3c(O)c(NC(=O)c4ccc(O)c(CC=C(C)C)c4)c(=O)oc3c2C)OC1(C)C, for which the viability, T/C was 53.2%.
Same read-out and setting: to `O=C(Nc1ccc(O)c(NS(=O)(=O)c2ccc(F)cc2)c1)c1ccc(-c2ccccc2)cc1` + COC1C(OC(N)=O)C(O)C(Oc2ccc3c(O)c(NC(=O)c4ccc(O)c(CC=C(C)C)c4)c(=O)oc3c2C)OC1(C)C belongs 92.9%; to `COc1cc(C2c3cc4c(cc3C(OC3OC5COC(C)OC5C(O)C3O)C3COC(=O)C23)OCO4)cc(OC)c1O` (stereo unspecified) + Cc1cccc(N(C)C(=O)C2C(O)CCN2c2nc(C)cc(C(F)(F)F)c2C#N)c1, 84.4%; to `COc1cccc2c1C(=O)c1c(O)c3c(c(O)c1C2=O)CC(O)(C(=O)CO)CC3OC1CC(N)C(O)C(C)O1` (stereo unspecified) + Cc1cccc(N(C)C(=O)C2C(O)CCN2c2nc(C)cc(C(F)(F)F)c2C#N)c1, 37.2%.

Staying with this assay, now noted: second compound 3.16 µM; first compound 1 µM; active compounds read low.
Take `CC1COCCN1c1cc(C2(O)CC3CCC(C2)O3)c2cnn(-c3ccn[nH]3)c2n1` (stereo unspecified) + COC1C(OC(N)=O)C(O)C(Oc2ccc3c(O)c(NC(=O)c4ccc(O)c(CC=C(C)C)c4)c(=O)oc3c2C)OC1(C)C: the viability, T/C is 46.8%.
As for `O=C(Nc1ccc(O)c(NS(=O)(=O)c2ccc(F)cc2)c1)c1ccc(-c2ccccc2)cc1` + COC1C(OC(N)=O)C(O)C(Oc2ccc3c(O)c(NC(=O)c4ccc(O)c(CC=C(C)C)c4)c(=O)oc3c2C)OC1(C)C, the viability, T/C is 93.8%.
For `COc1cc(C2c3cc4c(cc3C(OC3OC5COC(C)OC5C(O)C3O)C3COC(=O)C23)OCO4)cc(OC)c1O` (stereo unspecified) + Cc1cccc(N(C)C(=O)C2C(O)CCN2c2nc(C)cc(C(F)(F)F)c2C#N)c1, the viability, T/C was 75.9%.
For `COc1cccc2c1C(=O)c1c(O)c3c(c(O)c1C2=O)CC(O)(C(=O)CO)CC3OC1CC(N)C(O)C(C)O1` (stereo unspecified) + Cc1cccc(N(C)C(=O)C2C(O)CCN2c2nc(C)cc(C(F)(F)F)c2C#N)c1, the viability, T/C is 5.9%.

Still in this assay, the particulars now being: second compound 3.16 µM; first compound 3.16 µM; active compounds read low.
`CC1COCCN1c1cc(C2(O)CC3CCC(C2)O3)c2cnn(-c3ccn[nH]3)c2n1` (stereo unspecified) + COC1C(OC(N)=O)C(O)C(Oc2ccc3c(O)c(NC(=O)c4ccc(O)c(CC=C(C)C)c4)c(=O)oc3c2C)OC1(C)C: the viability, T/C was 26.1%.
The same measure, in the same setting: the result for `O=C(Nc1ccc(O)c(NS(=O)(=O)c2ccc(F)cc2)c1)c1ccc(-c2ccccc2)cc1` + COC1C(OC(N)=O)C(O)C(Oc2ccc3c(O)c(NC(=O)c4ccc(O)c(CC=C(C)C)c4)c(=O)oc3c2C)OC1(C)C reads 89.4%.
Still for that read-out and setting: the result for `COc1cc(C2c3cc4c(cc3C(OC3OC5COC(C)OC5C(O)C3O)C3COC(=O)C23)OCO4)cc(OC)c1O` (stereo unspecified) + Cc1cccc(N(C)C(=O)C2C(O)CCN2c2nc(C)cc(C(F)(F)F)c2C#N)c1 reads 54.2%.
The same measure, in the same setting: to `COc1cccc2c1C(=O)c1c(O)c3c(c(O)c1C2=O)CC(O)(C(=O)CO)CC3OC1CC(N)C(O)C(C)O1` (stereo unspecified) + Cc1cccc(N(C)C(=O)C2C(O)CCN2c2nc(C)cc(C(F)(F)F)c2C#N)c1 belongs 3.46%.

Still in this assay, the particulars now being: second compound 3.16 µM; first compound 10 µM; active compounds read low.
For `CC1COCCN1c1cc(C2(O)CC3CCC(C2)O3)c2cnn(-c3ccn[nH]3)c2n1` (stereo unspecified) + COC1C(OC(N)=O)C(O)C(Oc2ccc3c(O)c(NC(=O)c4ccc(O)c(CC=C(C)C)c4)c(=O)oc3c2C)OC1(C)C, the viability, T/C was 15.6%.
Consider `O=C(Nc1ccc(O)c(NS(=O)(=O)c2ccc(F)cc2)c1)c1ccc(-c2ccccc2)cc1` + COC1C(OC(N)=O)C(O)C(Oc2ccc3c(O)c(NC(=O)c4ccc(O)c(CC=C(C)C)c4)c(=O)oc3c2C)OC1(C)C, for which the viability, T/C is 76.3%.
On the same count and under the same terms, the result for `COc1cc(C2c3cc4c(cc3C(OC3OC5COC(C)OC5C(O)C3O)C3COC(=O)C23)OCO4)cc(OC)c1O` (stereo unspecified) + Cc1cccc(N(C)C(=O)C2C(O)CCN2c2nc(C)cc(C(F)(F)F)c2C#N)c1 reads 45.5%; that for `COc1cccc2c1C(=O)c1c(O)c3c(c(O)c1C2=O)CC(O)(C(=O)CO)CC3OC1CC(N)C(O)C(C)O1` (stereo unspecified) + Cc1cccc(N(C)C(=O)C2C(O)CCN2c2nc(C)cc(C(F)(F)F)c2C#N)c1, 3.96%.

The assay is the same for the next values; noted with them: second compound 10 µM; first compound 0.0316 µM; active compounds read low.
Consider `CC1COCCN1c1cc(C2(O)CC3CCC(C2)O3)c2cnn(-c3ccn[nH]3)c2n1` (stereo unspecified) + COC1C(OC(N)=O)C(O)C(Oc2ccc3c(O)c(NC(=O)c4ccc(O)c(CC=C(C)C)c4)c(=O)oc3c2C)OC1(C)C, for which the viability, T/C was 72.5%.
On to `O=C(Nc1ccc(O)c(NS(=O)(=O)c2ccc(F)cc2)c1)c1ccc(-c2ccccc2)cc1` + COC1C(OC(N)=O)C(O)C(Oc2ccc3c(O)c(NC(=O)c4ccc(O)c(CC=C(C)C)c4)c(=O)oc3c2C)OC1(C)C, for which the viability, T/C is 82.6%.
Same read-out and setting: to `COc1cc(C2c3cc4c(cc3C(OC3OC5COC(C)OC5C(O)C3O)C3COC(=O)C23)OCO4)cc(OC)c1O` (stereo unspecified) + Cc1cccc(N(C)C(=O)C2C(O)CCN2c2nc(C)cc(C(F)(F)F)c2C#N)c1 belongs 84.1%.
